Source: the supplement of paper PMC10331698
± gives the standard deviation of the averaged measurements.

Columns and labels:
Assay in all cases: level (log10 ratio to DMSO vehicle control); higher = higher biomarker level / cell amount than vehicle control
Conditions in all cases: in DMSO
[1] = compound: OCC(F)(F)C(F)(F)C(F)(F)C(F)(F)C(F)(F)C(F)F [1H,1H,7H-Dodecafluoro-1-heptanol]
Method: (§1)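 BioMAP Diversity Plus panel of 12 human primary cell co-culture systems (3C, 4H, LPS, SAg, BT, BF4T, BE3C, CASM3C, HDF3CGF, KF3CT, MyoF, Mphg). Compounds were added 1 h before stimulation and left for 24 h (MyoF 48 h; BT 72 h for soluble read-outs or 6 d for IgG). Biomarkers were read by ELISA, cytotoxicity by SRB, PBMC viability and proliferation by Alamar Blue. Each well value was divided by the mean of 8 DMSO control wells on the same plate and log10 transformed; duplicate blinded samples were tested at 4 concentrations.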

[2] = compound: O=C(O)CCC(F)(F)C(F)(F)C(F)(F)F [3:3 Fluorotelomer carboxylic acid]
Method: as §1

[3] = compound: FC(F)(F)C(F)(F)C(F)(F)C(F)(F)C(F)(F)C(F)(F)C(F)(F)CCI [1-Iodo-1H,1H,2H,2H-perfluorononane]
Method: as §1

| Test System | level (log10) ([1]; 6700 nM) | level (log10) ([1]; 20000 nM) | level (log10) ([1]; 60000 nM) | level (log10) ([2]; 6700 nM) | level (log10) ([2]; 20000 nM) | level (log10) ([2]; 60000 nM) | level (log10) ([3]; 6700 nM) | level (log10) ([3]; 20000 nM) |
| --- | --- | --- | --- | --- | --- | --- | --- | --- |
| HDF3CGF:MMP-1 | 0.0115 ± 0.015 | 0.0105 ± 0.0021 | 0.012 ± 0.02 | 0.0045 ± 0.037 | 0.009 ± 0.017 | 0.0045 ± 0.015 | 0.011 ± 0.017 | 0.061 ± 0.04 |
| HDF3CGF:PAI-I | -0.008 ± 0.0085 | -0.004 ± 0.02 | 0.006 ± 0.047 | -0.006 ± 0.031 | -0.0035 ± 0.023 | 0.0085 ± 0.005 | 0.0075 ± 0.023 | -0.0095 ± 0.032 |
| BE3C:PAI-I | -0.007 ± 0.0057 | -0.009 ± 0.0099 | -0.0105 ± 0.0078 | -0.0095 ± 0.00071 | -0.0025 ± 0.015 | 0.0005 ± 0.0078 | 0.016 ± 0.0071 | -0.01 ± 0.0099 |
| CASM3C:CD106/VCAM-1 | -0.0025 ± 0.022 | -0.017 ± 0.0057 | -0.017 ± 0.024 | -0.0255 ± 0.0035 | -0.03 ± 0.0057 | -0.0295 ± 0.015 | -0.019 ± 0.0099 | -0.0645 ± 0.012 |
| HDF3CGF:Collagen III | -0.002 ± 0.018 | -0.0065 ± 0.0078 | 0.0145 ± 0.015 | -0.012 ± 0.017 | -0.007 ± 0.025 | 0.0245 ± 0.054 | -0.063 ± 0.023 | -0.138 ± 0.028 |
| MyoF:CD106/VCAM-1 | -0.014 ± 0.021 | -0.0115 ± 0.0092 | -0.019 ± 0.016 | -0.0005 ± 0.012 | -0.016 ± 0.0085 | -0.013 ± 0.0085 | -0.007 ± 0.023 | -0.003 ± 0.0014 |
| MyoF:Decorin | -0.0105 ± 0.00071 | -0.0005 ± 0.036 | -0.017 ± 0.021 | -0.024 ± 0.0028 | -0.0115 ± 0.015 | -0.004 ± 0.024 | 0.014 ± 0.0042 | 0.038 ± 0.05 |
| 3C:CD54/ICAM-1 | -0.009 ± 0.011 | -0.003 ± 0.0099 | -0.0055 ± 0.0021 | -0.019 ± 0.0099 | -0.009 ± 0.023 | -0.0015 ± 0.023 | -0.0115 ± 0.00071 | 0.0025 ± 0.016 |
| KF3CT:CCL2/MCP-1 | -0.0055 ± 0.021 | -0.0155 ± 0.015 | 0.004 ± 0.028 | -0.005 ± 0.025 | -0.0135 ± 0.016 | 0.0225 ± 0.046 | 0.01 ± 0.03 | 0.0795 ± 0.07 |
